A word on the Ki: it is a measure of affinity in units of concentration, obtained from inhibition or displacement.

Where only a bound is given, the exact number is not on record here.

Assay [1] deals with human pancreatic carcinoma MiaPACA2 xenograft tumors. As to the kind of experiment: CIVO arrayed microinjection into xenografted MiaPACA2 tumors, immunofluorescence (CC3, pHH3).
Method: Microinjections were performed using the CIVO™ arrayed microinjection device (Presage Biosciences, Seattle Wash.). This device enables simultaneous delivery of multiple drug samples, each individually, directly into spatially defined positions within a living tumor. The CIVO device having a 5 needle array was inserted transcutaneously into flank tumors of anesthetized mice.
24 hours later, tumors were resected and sectioned across the axis of injection to produce histological sections of tumor that show the 5 different sites of injection.
Circular regions of interests (ROI) centered on the injection sites were inscribed. Within each ROI, the fraction of cells expressing CC3 was mapped as a function of radial distance from the injection site. To generate radial response plots, calculations were made at 100 micron intervals and were based on all cells within a 100 micron wide band centered at each radial distance. Measurements began at 200 microns to exclude regions directly affected by needle induced injury.
Tumors from a first set of mice were processed for immunofluorescence analysis with CC3 antibodies 24 hours after injection (FIG. 3A), and tumors from a second set were processed for analysis with CC3 antibodies 48 hours after injection (FIG. 3B). […]
Another assay addresses T1, Bcl-w (Homo sapiens, UniProt Q92843).
T1 sequence (Q92843 1-193): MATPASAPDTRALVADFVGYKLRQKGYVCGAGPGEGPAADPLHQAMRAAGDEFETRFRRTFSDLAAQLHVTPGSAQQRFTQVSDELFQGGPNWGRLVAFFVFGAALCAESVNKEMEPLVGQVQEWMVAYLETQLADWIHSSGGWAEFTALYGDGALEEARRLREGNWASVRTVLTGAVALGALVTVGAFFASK
The settings on record: cited from earlier work.

Take `CC1(C)CCC(CN2CCN(c3ccc(C(=O)NS(=O)(=O)c4ccc(NCC5CCOCC5)c([N+](=O)[O-])c4)c(Oc4cnc5[nH]ccc5c4)c3)CC2)=C(c2ccc(Cl)cc2)C1` [ABT-199]: the “CC3 positive cells at the site of injection” value in assay [1] (MiaPACA2 tumors, 24 hours, diminished with increasing radial distance (FIG. 2)) is “increase”. Moreover, in assay [1] (solid tumor models, combination with Abraxane (summary statement)), the “synergy with Abraxane in inducing tumor cell death” value was “not observed”. On to `CC1(C)CCC(c2ccc(Cl)cc2)=C(CN2CCN(c3ccc(C(=O)NS(=O)(=O)c4ccc(N[C@H](CCN5CCOCC5)CSc5ccccc5)c(S(=O)(=O)C(F)(F)F)c4)cc3)CC2)C1` [ABT-263], for which the Ki on Bcl-w was not above 1 nM.

The record behind these values is patent US20170202782A1 (Abraxis BioScience, LLC, priority 2014, published 2017).
